This is an account of results in ChEMBL document CHEMBL4190267, “Discovery of potent molecular chimera (CM358) to treat human metastatic melanoma” (Eur J Med Chem, 2017).

The source made the active and inactive calls. No cut-off for these calls is given here. Where only a bound is given, the exact number is not on record here.

The subject of data set [1] is WM 266-4. As to the kind of experiment: Growth inhibition of human WM266.4 cells at 25 uM after 24 hrs by XTT assay. It counts as functional, cell-based. In general terms: Formazan colour is commonly taken as a measure of viable cells.
Data set [2] relates to WM 266-4. As to the kind of experiment: Growth inhibition of human WM266.4 cells up to 25 uM measured after 24 hrs by XTT assay. It counts as functional, cell-based.
The test system of data set [3] is PC-3. As to the kind of experiment: Growth inhibition of human PC3 cells up to 25 uM measured after 24 hrs by XTT assay. It counts as functional, cell-based.
For data set [4], the system named is A 172. As to the kind of experiment: Growth inhibition of human A172 cells up to 25 uM measured after 24 hrs by XTT assay. It counts as functional, cell-based.
Data set [5] has as its system NCI-H1299. Put plainly: Growth inhibition of human NCI-H1299 cells up to 25 uM measured after 24 hrs by XTT assay. It counts as functional, cell-based.
Data set [6] has as its system WM 266-4. As to the kind of experiment: Growth inhibition of human WM266.4 cells up to 25 uM measured up to 96 hrs by XTT assay. It counts as functional, cell-based.
Data set [7] has as its system MDA-MB-231. Put plainly: Growth inhibition of human MDA-MB-231 cells up to 25 uM measured after 24 hrs by XTT assay. It counts as functional, cell-based.
In data set [8] the test system is A 172. Put plainly: Growth inhibition of human A172 cells up to 25 uM cotreated with colchicine measured after 24 hrs by XTT assay. It counts as functional, cell-based.
The subject of data set [9] is PC-3. As to the kind of experiment: Growth inhibition of human PC3 cells up to 25 uM cotreated with colchicine measured after 24 hrs by XTT assay. Type of data set: functional, cell-based.
Data set [10] has as its system NCI-H1299. As to the kind of experiment: Growth inhibition of human NCI-H1299 cells up to 25 uM cotreated with colchicine measured after 24 hrs by XTT assay. Type of data set: functional, cell-based.
Data set [11] deals with MDA-MB-231. As to the kind of experiment: Growth inhibition of human MDA-MB-231 cells up to 25 uM cotreated with colchicine measured after 24 hrs by XTT assay. It counts as functional, cell-based.
Data set [12] relates to WM 266-4. Put plainly: Growth inhibition of human WM266.4 cells up to 25 uM cotreated with colchicine measured after 24 hrs by XTT assay. Type of data set: functional, cell-based.
Data set [13] relates to WM 266-4. Put plainly: Cell cycle arrest in human WM266.4 cells assessed as accumulation at G1 phase at 10 uM cotreated with amonafide after 2 hrs by propidium iodide staining based flow cytometry (reference value: 59%). It counts as functional. (In flow cytometry, cells or beads pass a laser one at a time.)
In data set [14] the test system is PC-3. Put plainly: Growth inhibition of human PC3 cells preincubated for 6 hrs cotreated with amonafide followed compound washout measured after 24 hrs by XTT assay. It counts as functional.
Data set [15] relates to WM 266-4. Put plainly: Cell cycle arrest in human WM266.4 cells assessed as accumulation at G2 phase at 10 uM cotreated with amonafide after 8 hrs by propidium iodide staining based flow cytometry (reference value: 11%). Type of data set: functional.
The test system of data set [16] is WM 266-4. Put plainly: Growth inhibition of human WM266.4 cells preincubated for 6 hrs followed compound washout measured after 24 hrs by XTT assay. Type of data set: functional.
The test system of data set [17] is A 172. Put plainly: Growth inhibition of human A172 cells preincubated for 6 hrs followed compound washout measured after 24 hrs by XTT assay. Type of data set: functional.
The test system of data set [18] is WM 266-4. As to the kind of experiment: Growth inhibition of human WM266.4 cells preincubated for 6 hrs cotreated with amonafide followed compound washout measured after 24 hrs by XTT assay. It counts as functional.
The subject of data set [19] is WM 266-4. As to the kind of experiment: Antitumor activity against human WM266.4 cells xenografted in athymic Foxn1 nu mouse assessed as tumor growth inhibition at 10 mg/kg, ip cotreated with amonafide administered once daily for 3 days followed by resting period of 4 days repeated for 4 weeks starting from 5 days post tumor inoculation. It counts as functional, organism-based. (In general: Xenograft models place foreign cells or tissue in a host animal.)

The subject of data set [20] is NCI-H1299. As to the kind of experiment: Growth inhibition of human NCI-H1299 cells preincubated for 6 hrs followed compound washout measured after 24 hrs by XTT assay. It counts as functional.
Data set [21] deals with WM 266-4. As to the kind of experiment: Cell cycle arrest in human WM266.4 cells assessed as accumulation at S phase at 10 uM cotreated with amonafide after 24 hrs by propidium iodide staining based flow cytometry (reference value: 27%). It counts as functional.
Data set [22] has as its system Mus musculus. As to the kind of experiment: Toxicity in athymic Foxn1 nu mouse xenografted with human WM266.4 cells assessed as body weight loss at 10 mg/kg, ip cotreated with amonafide administered once daily for 7 days followed by resting period of 2 days repeated for 4 weeks starting from 5 days post tumor inoculation. It counts as organism-based. As to conditions: in vivo.

In data set [23] the test system is MDA-MB-231. Put plainly: Growth inhibition of human MDA-MB-231 cells preincubated for 6 hrs followed compound washout measured after 24 hrs by XTT assay. Type of data set: functional.
In data set [24] the test system is WM 266-4. As to the kind of experiment: Cell cycle arrest in human WM266.4 cells assessed as accumulation at G2 phase at 10 uM cotreated with amonafide after 2 hrs by propidium iodide staining based flow cytometry (reference value: 11%). Type of data set: functional.
For data set [25], the system named is NCI-H1299. As to the kind of experiment: Growth inhibition of human NCI-H1299 cells preincubated for 6 hrs cotreated with amonafide followed compound washout measured after 24 hrs by XTT assay. Type of data set: functional.
Data set [26] deals with WM 266-4. As to the kind of experiment: Cell cycle arrest in human WM266.4 cells assessed as accumulation at G1 phase at 10 uM cotreated with amonafide after 8 hrs by propidium iodide staining based flow cytometry (reference value: 59%). It counts as functional.
For data set [27], the system named is WM 266-4. Put plainly: Cell cycle arrest in human WM266.4 cells assessed as accumulation at S phase at 10 uM cotreated with amonafide after 2 hrs by propidium iodide staining based flow cytometry (reference value: 27%). Type of data set: functional.
Data set [28] deals with WM 266-4. As to the kind of experiment: Cell cycle arrest in human WM266.4 cells assessed as accumulation at G1 phase at 10 uM cotreated with amonafide after 24 hrs by propidium iodide staining based flow cytometry (reference value: 59%). It counts as functional.
Data set [29] concerns MDA-MB-231. Put plainly: Growth inhibition of human MDA-MB-231 cells preincubated for 6 hrs cotreated with amonafide followed compound washout measured after 24 hrs by XTT assay. It counts as functional.
Data set [30] concerns A 172. As to the kind of experiment: Growth inhibition of human A172 cells preincubated for 6 hrs cotreated with amonafide followed compound washout measured after 24 hrs by XTT assay. It counts as functional.
For data set [31], the system named is WM 266-4. As to the kind of experiment: Cell cycle arrest in human WM266.4 cells assessed as accumulation at S phase at 10 uM cotreated with amonafide after 8 hrs by propidium iodide staining based flow cytometry (reference value: 27%). It counts as functional.
The subject of data set [32] is PC-3. As to the kind of experiment: Growth inhibition of human PC3 cells preincubated for 6 hrs followed compound washout measured after 24 hrs by XTT assay. Type of data set: functional.
Data set [33] concerns WM 266-4. As to the kind of experiment: Antitumor activity against human WM266.4 cells xenografted in athymic Foxn1 nu mouse assessed as tumor growth inhibition at 10 mg/kg, ip cotreated with amonafide administered once daily for 7 days followed by resting period of 2 days repeated for 4 weeks starting from 5 days post tumor inoculation. Type of data set: functional, organism-based.

Data set [34] relates to WM 266-4. Put plainly: Cell cycle arrest in human WM266.4 cells assessed as accumulation at G2 phase at 10 uM cotreated with amonafide after 24 hrs by propidium iodide staining based flow cytometry (reference value: 11%). Type of data set: functional.
Data set [35] has as its system Mus musculus. Put plainly: Toxicity in athymic Foxn1 nu mouse xenografted with human WM266.4 cells assessed as body weight loss at 10 mg/kg, ip cotreated with amonafide administered once daily for 3 days followed by resting period of 4 days repeated for 4 weeks starting from 5 days post tumor inoculation. Type of data set: organism-based. The note with it: in vivo.

With `CC(=O)Nc1cc2c3c(cccc3c1)C(=O)N(CCN(C)C)C2=O`, in the data set on WM 266-4 [1], the “growth inhibition (GI)” value was “inactive”.

As to `CC[C@@]1(OC(=O)N[C@H]2CCc3cc(OC)c(OC)c(OC)c3-c3ccc(OC)c(=O)cc32)C(=O)OCc2c1cc1n(c2=O)Cc2cc3ccccc3nc2-1`, the “growth inhibition (GI)” value in the data set with WM 266-4 [2], with PC-3 [3], in the data set with A 172 [4], with NCI-H1299 [5], in the data set on WM 266-4 [6] and in the data set with MDA-MB-231 [7] was “inactive” each time.

Turning to `CC[C@@]1(O)C(=O)OCc2c1cc1n(c2=O)Cc2cc3ccccc3nc2-1`, the “growth inhibition (GI)” value with A 172 [8], in the data set with PC-3 [9], in the data set on NCI-H1299 [10], in the data set on MDA-MB-231 [11] and with WM 266-4 [12] was “Active” in each case.

Take `O=C(O)CCCc1ccc(N(CCCl)CCCl)cc1` [CHLORAMBUCIL]: the Activity is reported as 63.5% with WM 266-4 [13]; 23% in the data set on WM 266-4 [15]; 39% in the data set with WM 266-4 [21]; “Toxic” in the data set with Mus musculus [22]; 9.8% in the data set with WM 266-4 [24]; 29% with WM 266-4 [26]. For the same compound, the Activity is recorded as 26% with WM 266-4 [27]; 35% in the data set with WM 266-4 [28]; 44.7% in the data set with WM 266-4 [31]; 26% in the data set with WM 266-4 [34]; “Toxic” with Mus musculus [35]. In addition, the GI50 with PC-3 [14], in the data set with WM 266-4 [16], with A 172 [17], in the data set with WM 266-4 [18], in the data set with NCI-H1299 [20] and with MDA-MB-231 [23] was > 25 µM in each case. The GI50 in the data set on NCI-H1299 [25], in the data set on MDA-MB-231 [29], in the data set with A 172 [30] and in the data set with PC-3 [32] was > 25 µM throughout. For the same compound, the TGI result with WM 266-4 [19] and in the data set on WM 266-4 [33] was “inactive” in each case.

For orientation: GI50 means the concentration giving 50% growth inhibition.
